A value given as a limit tells only on which side of the number the result lay.

The test system of one assay is HCC461. As to the kind of experiment: cell viability assay in HCC461, compound alone. The class given is cell-based. The following applies: HCC461, HCC461; Tables 6-9; read-out: IC50 (μM) in cell viability assay in HCC461.
Take `CN[C@@H](C)C(=O)N[C@H](C(=O)N1C[C@@H](NC(=O)c2cccc(C(=O)N[C@H]3C[C@@H](C(=O)N[C@@H]4CCCc5ccccc54)N(C(=O)[C@@H](NC(=O)[C@H](C)NC)C(C)(C)C)C3)c2)C[C@H]1C(=O)N[C@H](C)C(C)C)C(C)C` [Compound 133]: the concentration for half-maximal inhibition (IC50) is 0.016 µM.

For `CN[C@@H](C)C(=O)N[C@@H](CCC(=O)OC)C(=O)N1C[C@@H](NC(=O)c2cccc(C(=O)N[C@H]3C[C@@H](C(=O)N[C@H](C)c4ccccc4)N(C(=O)[C@@H](NC(=O)[C@H](C)NC)C(C)(C)C)C3)c2)CC1C(=O)N[C@H](C)c1ccccc1` (stereo partly drawn) [Compound 150], the IC50 was determined as 0.121 µM.

For `CN[C@@H](C)C(=O)N[C@H](C(=O)N1C[C@@H](NC(=O)CC[C@@H](NC(=O)[C@H](NC(=O)[C@@H](C)NC)C(C)(C)C)C(=O)N[C@H]2CCCc3ccccc32)C[C@H]1C(=O)N[C@@H]1CCCc2ccccc21)C(C)(C)C` [Compound 157], the concentration for half-maximal inhibition (IC50) worked out at 0.03 µM.

Turning to `CCC[C@H](NC(=O)[C@H](C)NC)C(=O)N1C[C@@H](NC(=O)c2cccc(C(=O)N[C@H]3C[C@@H](C(=O)N[C@@H]4CCCc5ccccc54)N(C(=O)[C@@H](NC(=O)[C@H](C)NC)C(C)(C)C)C3)c2)C[C@H]1C(=O)N1CCCCC1` [Compound 141], the concentration for half-maximal inhibition (IC50) was 0.109 µM.

`CN[C@@H](C)C(=O)N[C@@H](CCCCNC(=O)c1cccc(C(=O)N[C@H]2CCN(C(=O)[C@@H](NC(=O)[C@H](C)NC)C(C)(C)C)C2)c1)C(=O)N1CCC[C@H]1C(=O)N[C@@H]1CCCc2ccccc21` [Compound 135]: the IC50 was 12.1 µM.

In the case of `CN[C@@H](C)C(=O)N[C@@H](CC#CC#CC[C@H](NC(=O)[C@H](C)NC)C(=O)N1CCCC[C@H]1C(=O)N[C@@H]1CCCc2ccccc21)C(=O)N1CCCC[C@H]1C(=O)N[C@@H]1CCCc2ccccc21` [Compound 87], the concentration for half-maximal inhibition (IC50) was determined as 0.404 µM.

As to `CCC[C@H](NC(=O)[C@H](C)NC)C(=O)N1C[C@@H](NC(=O)c2cccc(C(=O)N[C@H]3C[C@@H](C(=O)N[C@@H]4CCCc5ccccc54)N(C(=O)[C@@H](NC(=O)[C@H](C)NC)C(C)(C)C)C3)c2)C[C@H]1C(=O)N1CCCC1` [Compound 155], the concentration for half-maximal inhibition (IC50) amounted to 0.467 µM.

For the molecule `CN[C@@H](C)C(=O)N[C@H](C(=O)N1C[C@@H](NC(=O)c2cccc(C(=O)NCC[C@@H](NC(=O)[C@H](NC(=O)[C@@H](C)NC)C(C)C)C(=O)N[C@@H](C)C(C)C)c2)C[C@H]1C(=O)N[C@@H]1CCCc2ccccc21)C(C)(C)C` [Compound 138], the IC50 is above 30 µM.

With `CN[C@@H](C)C(=O)N[C@@H](CCC(=O)O)C(=O)N1C[C@@H](NC(=O)c2cccc(C(=O)N[C@H]3C[C@@H](C(=O)N[C@H](C)c4ccccc4)N(C(=O)[C@@H](NC(=O)[C@H](C)NC)C(C)(C)C)C3)c2)CC1C(=O)N[C@H](C)c1ccccc1` (stereo partly drawn) [Compound 148], the half-inhibitory concentration (IC50) is 0.622 µM.

Staying with this assay, now noted: HCC461, HCC461; Tables 15-18; read-out: IC50 (uM) in cell viability assay in HCC461.
In the case of `CN[C@@H](C)C(=O)N[C@H](C(=O)N1CCC[C@H]1C(=O)NC1c2ccccc2-c2ccccc21)[C@@H](C)OCC#CC#CCO[C@H](C)[C@H](NC(=O)[C@H](C)NC)C(=O)N1CCC[C@H]1C(=O)NC1c2ccccc2-c2ccccc21` [Compound P2-15], the 50% inhibitory concentration (IC50) came out at 0.07 µM.

Turning to `CN[C@@H](C)C(=O)N[C@H](C(=O)N1CCC[C@H]1C(=O)N[C@H](CNC(=O)C1CCC(C(=O)NC[C@@H](NC(=O)[C@@H]2CCCN2C(=O)[C@@H](NC(=O)[C@H](C)NC)C(C)(C)C)C2CCCCC2)CC1)C1CCCCC1)C(C)(C)C` (stereo partly drawn) [Compound P4-6], the IC50 came out at 0.07 µM.

Consider `CC[C@H](NC)C(=O)N[C@@H](CCCCCC[C@H](NC(=O)[C@H](CC)NC)C(=O)N1CCC[C@H]1C(=O)N[C@@H]1CCCc2ccccc21)C(=O)N1CCC[C@H]1C(=O)N[C@@H]1CCCc2ccccc21` [Compound P2-12], for which the 50% inhibitory concentration (IC50) stood at 0.021 µM.

Take `CN[C@@H](C)C(=O)N[C@H](C(=O)N1CCC[C@H]1C(=O)N[C@@H]1CCCc2ccccc21)c1ccc(OCc2ccccc2COc2ccc([C@H](NC(=O)[C@H](C)NC)C(=O)N3CCC[C@H]3C(=O)N[C@@H]3CCCc4ccccc43)cc2)cc1` [Compound P2-3]: the IC50 is 0.072 µM.

As to `CN[C@@H](C)C(=O)N[C@H](C(=O)N1CCC[C@H]1Cn1nnnc1S(=O)(=O)c1ccc(C)cc1)[C@@H](C)OCC#CC#CCO[C@H](C)[C@H](NC(=O)[C@H](C)NC)C(=O)N1CCC[C@H]1Cn1nnnc1S(=O)(=O)c1ccc(C)cc1` [Compound P2-22], the IC50 was 0.18 µM.

Still in this assay, the particulars now being: HCC461, HCC461 cells, compound alone; read-out: IC50 (uM) in cell viability assay in HCC461.
For `CN[C@@H](C)C(=O)N[C@H](C(=O)N1C[C@@H](n2cc(CNC(=O)c3cccc(C(=O)NCc4cn([C@H]5C[C@@H](C(=O)N[C@@H]6CCCc7ccccc76)N(C(=O)[C@@H](NC(=O)[C@H](C)NC)C(C)(C)C)C5)nn4)c3)nn2)C[C@H]1C(=O)N[C@@H]1CCCc2ccccc21)C(C)(C)C` [Compound P3-7], the concentration for half-maximal inhibition (IC50) was found to be 0.007 µM.

For the molecule `CN[C@@H](C)C(=O)N[C@H](C(=O)N1C[C@@H](NC(=O)c2cc(N)cc(C(=O)N[C@H]3C[C@@H](C(=O)N[C@H](C)c4ccccc4)N(C(=O)[C@@H](NC(=O)[C@H](C)NC)C(C)C)C3)c2)C[C@H]1C(=O)N[C@H](C)c1ccccc1)C(C)C` [Compound P3-81], the IC50 came out at 0.058 µM.

Regarding `CN[C@@H](C)C(=O)N[C@H](C(=O)N1C[C@@H](NC(=O)CCCC(=O)N[C@H]2C[C@@H](C(=O)NC3c4ccccc4-c4ccccc43)N(C(=O)[C@@H](NC(=O)[C@H](C)NC)C(C)(C)C)C2)C[C@H]1C(=O)NC1c2ccccc2-c2ccccc21)C(C)(C)C` [Compound P3-3], the IC50 stood at 0.07 µM.

For `C#CC[C@H](NC(=O)[C@H](C)NC)C(=O)N1C[C@@H](NC(=O)N[C@H]2C[C@@H](C(=O)N[C@@H]3CCCc4ccccc43)N(C(=O)[C@H](CC#C)NC(=O)[C@H](C)NC)C2)CC1C(=O)N[C@@H]1CCCc2ccccc21` (stereo partly drawn) [Compound P3-9], the IC50 was determined as 0.086 µM.

For the molecule `CN[C@@H](C)C(=O)N[C@H](C(=O)N1C[C@@H](NC(=O)c2cncc(C(=O)N[C@H]3C[C@@H](C(=O)N[C@@H]4CCCc5ccccc54)N(C(=O)[C@@H](NC(=O)[C@H](C)NC)C(C)(C)C)C3)c2)C[C@H]1C(=O)N[C@@H]1CCCc2ccccc21)C(C)(C)C` [Compound P3-11], the IC50 amounted to 0.003 µM.

For `CN[C@@H](C)C(=O)N[C@H](C(=O)N1C[C@@H](NC(=O)[C@@H]2[C@@H]3CC[C@@H](C3)[C@@H]2C(=O)N[C@H]2C[C@@H](C(=O)N[C@@H]3CCCc4ccccc43)N(C(=O)[C@@H](NC(=O)[C@H](C)NC)C(C)(C)C)C2)C[C@H]1C(=O)N[C@@H]1CCCc2ccccc21)C(C)(C)C` [Compound P3-34], the IC50 came to 0.08 µM.

As to `CN[C@@H](C)C(=O)N[C@H](C(=O)N1C[C@@H](NC(=O)c2cc(C(=O)N[C@H]3C[C@@H](C(=O)NC4CCCc5ccccc54)N(C(=O)[C@@H](NC(=O)[C@H](C)NC)C(C)(C)C)C3)cc([N+](=O)[O-])c2)CC1C(=O)N[C@@H]1CCCc2ccccc21)C(C)(C)C` (stereo partly drawn) [Compound P3-16], the IC50 was found to be 0.007 µM.

Take `CN[C@@H](C)C(=O)N[C@H](C(=O)N1C[C@@H](NC(=O)c2cc(OC)cc(C(=O)N[C@H]3C[C@@H](C(=O)N[C@H](C)c4ccccc4)N(C(=O)[C@@H](NC(=O)[C@H](C)NC)C(C)(C)C)C3)c2)C[C@H]1C(=O)N[C@H](C)c1ccccc1)C(C)(C)C` [Compound P3-73]: the IC50 amounted to 0.075 µM.

As to `CN[C@@H](C)C(=O)N[C@H](C(=O)N1C[C@@H](NC(=O)c2cccc(C(=O)N[C@H]3C[C@@H](C(=O)N[C@H](C)C(C)C)N(C(=O)[C@@H](NC(=O)[C@H](C)NC)C(C)(C)C)C3)c2)C[C@H]1C(=O)N[C@H](C)C(C)C)C(C)(C)C` [Compound P3-83], the IC50 was 0.196 µM.

Consider `CN[C@@H](C)C(=O)N[C@H](C(=O)N1C[C@@H](NC(=O)CCCCCCC(=O)N[C@H]2C[C@@H](C(=O)N[C@@H]3CCCc4ccccc43)N(C(=O)[C@@H](NC(=O)[C@H](C)NC)C(C)(C)C)C2)C[C@H]1C(=O)N[C@@H]1CCCc2ccccc21)C(C)(C)C` [Compound P3-85], for which the concentration for half-maximal inhibition (IC50) was 0.099 µM.

Still in this assay, the particulars now being: HCC461; Tables 6-9; read-out: IC50 (μM) in cell viability assay in HCC461.
As to `C[C@H](NC(=O)OCc1ccc([N+](=O)[O-])cc1)C(=O)NC(C(=O)N1C[C@@H](NC(=O)c2cc(C(=O)N[C@H]3C[C@@H](C(=O)N[C@@H]4CCCc5ccccc54)N(C(=O)[C@@H](NC(=O)[C@H](C)NC(=O)OCc4ccc([N+](=O)[O-])cc4)C(C)(C)C)C3)cc(S(=O)(=O)O)c2)CC1C(=O)N[C@@H]1CCCc2ccccc21)C(C)(C)C` (stereo partly drawn) [Compound 112], the IC50 is above 30 µM.

Staying with this assay, now noted: HCC461; Tables 15-18; read-out: IC50 (uM) in cell viability assay in HCC461.
In the case of `CN[C@@H](C)C(=O)N[C@H](C(=O)N1CCC[C@H]1C(=O)N[C@H](CNC(=O)C1CCCCC1C(=O)NC[C@@H](NC(=O)[C@@H]1CCCN1C(=O)[C@@H](NC(=O)[C@H](C)NC)C(C)(C)C)C1CCCCC1)C1CCCCC1)C(C)(C)C` (single isomer, unassigned) [Compound P4-3], the IC50 amounted to 0.03 µM.

As to `CN[C@@H](C)C(=O)N[C@H](C(=O)N1CCC[C@H]1C(=O)N[C@H](CNC(=O)C1CCCCC1C(=O)NC[C@@H](NC(=O)[C@@H]1CCCN1C(=O)[C@@H](NC(=O)[C@H](C)NC)C(C)(C)C)C1CCCCC1)C1CCCCC1)C(C)(C)C` (single isomer, unassigned) [Compound P4-2], the IC50 was found to be 0.12 µM.

Consider `CN[C@@H](C)C(=O)N[C@@H](CCCCCC[C@H](NC(=O)[C@H](C)NC)C(=O)N1C[C@@H](NC(=O)c2ccccc2)C[C@H]1C(=O)N[C@@H]1CCCc2ccccc21)C(=O)N1C[C@@H](NC(=O)c2ccccc2)C[C@H]1C(=O)N[C@@H]1CCCc2ccccc21` [Compound P2-13], for which the IC50 is 0.168 µM.

The assay is the same for the next values; noted with them: HCC461 cells, compound alone; read-out: IC50 (uM) in cell viability assay in HCC461.
As for `CN[C@@H](C)C(=O)N[C@H](C(=O)N1C[C@@H](NC(=O)C2CCCC(C(=O)N[C@H]3C[C@@H](C(=O)NC4CCCc5ccccc54)N(C(=O)[C@@H](NC(=O)[C@H](C)NC)C(C)(C)C)C3)C2)CC1C(=O)N[C@@H]1CCCc2ccccc21)C(C)(C)C` (stereo partly drawn) [Compound P3-27], the IC50 was found to be 0.031 µM.

With `CN[C@@H](C)C(=O)N[C@H](C(=O)N1C[C@@H](NC(=O)c2cccc(C(=O)N[C@H]3C[C@@H](C(=O)NC4CCCC5CCCCC54)N(C(=O)[C@@H](NC(=O)[C@H](C)NC)C(C)(C)C)C3)c2)C[C@H]1C(=O)NC1CCCC2CCCCC21)C(C)(C)C` (stereo partly drawn) [Compound P3-59], the IC50 came out at 0.45 µM.

For the origin of these results see US20130344026A1, “Dimeric Smac Mimetics” (priority 2009, published 2013).
